Assay [1] has as its system AANAT-KO primary cerebrocortical neurons (PCNs). As to the kind of experiment: Cytokine ELISA in culture medium of PCNs. The class given is cell-based, mouse. The settings on record: AANAT-KO PCN, DIV21, melatonin 5 µM. The procedure: (§1) N2a cells were obtained from ATCC and grown in DMEM/F12 medium with 10% FBS. AANAT-KO N2a cells were generated as described elsewhere (see, e.g., Suofu et al., PNAS 114:E7997-E8006 (2017)). N2a cells were differentiated by exposing them to 10 µM retinoic acid (RA) with 2% fetal bovine serum (FBS) for 8 days. Every alternate day, the culture medium of differentiating N2a cells was replaced with fresh medium containing 10 µM of RA. N2a cells were treated with 5 µM melatonin during differentiation to evaluate the effect of melatonin in WT and AANAT-KO N2a differentiated neurons. Fresh melatonin was added with RA every alternate day for 8 days. All experiments were performed in 8-day-differentiated neurons with or without melatonin. STHdh^Q7/Q7 (Q7) STHdh^Q111/Q111 (Q111) cells were grown in MEM culture medium with 10% FBS. Differentiation of Q7 and Q111 cells was induced by exposing cells to 10 ng/mL α-FGF, 250 µM 3-isobutyl-1-methylxanthine (IBMX), 200 nM phorbol 12-myristate 13-acetate (TPA), 50 µM forskolin and 10 µM dopamine for 2 days. AANAT-KO and littermate WT primary cerebro-cortical neuron (PCN) cultures were prepared from embryonic day (E) 15.5 embryos, as described elsewhere (see, e.g., Yano et al., Nature neuroscience 17:822 (2014)).
In general terms: An ELISA detects its analyte on a solid surface through an enzyme-linked reagent.

Assay [2] deals with AANAT-KO differentiated N2a cells. As to the kind of experiment: Neurite length and number by βIII-tubulin staining. The format is cell-based, mouse. The settings on record: melatonin 5 µM. The procedure:
as §1, with “(2014)). […]” for “(2014)).”

Assay [3] shares this test system. As to the kind of experiment: ROS (Mitosox) and MMP (JC-1/TMRM) in differentiated N2a cells. The format is cell-based, mouse. Conditions: melatonin 5 µM. As for the experimental part:
as §1, with “Differentiation of Q7 and Q111 cells was induced by exposing cells to 10 ng/mL α-FGF, 250 µM 3-isobutyl-1-methylxanthine (IBMX), 200 nM phorbol 12-myristate 13-acetate (TPA), 50 µM forskolin and 10 µM dopamine for 2 days. AANAT-KO and littermate WT primary cerebro-cortical neuron (PCN) cultures were prepared from embryonic day (E) 15.5 embryos, as described elsewhere (see, e.g., Yano et al., Nature neuroscience 17:822 (2014)).” left out
(§2) ROS accumulation in cells was estimated by either DCFDA for total ROS or Mitosox for mitochondrial ROS. Cells were incubated in 20 µM DCFDA for 45 minutes or 5 µM Mitosox for 15 minutes at 37° C. and fluorescence was measured using plate reader or flowcytometry. […] Cells were incubated in 2 µg/mL JC-1 or 25 nM TMRM for 30 minutes at 37° C. and fluorescence were measured using plate reader or flowcytrometry. […]

Assay [4] shares this test system. As to the kind of experiment: Immunoblot of inflammatory, caspase and synaptic markers in differentiated N2a cells. The format is cell-based, mouse. The settings on record: melatonin 5 µM. The procedure:
as §1
(§3) Samples (isolated mitochondria or whole-cell lysates) were cleared by centrifugation at 20,000 x g, equal amounts of protein were separated on Novex 4-12% gradient polyacrylamide gels (Invitrogen), and proteins transferred overnight onto 0.45 µm polyvinylidene difluoride (PVDF) membranes. The membranes were then incubated with the indicated primary antibodies overnight at 4° C. followed by incubation with secondary antibodies (Li-Cor) for 1 hour at room temperature, which were detected using the Odyssey CLx Infrared Imaging System (Li-Cor). Band intensities were quantified using Image Studio (Li-Cor).
For orientation: In western blotting, separated proteins are transferred to a membrane and probed.

In a further assay the test system is R6/2 mice. Nature of the assay: Melatonin injection in R6/2 mouse model of HD: cytosolic mtDNA, cGAS/STING/IRF3, cytokines. The settings on record: melatonin 30 mg/kg injected daily from 6 to 9 weeks of age. The class given is in vivo. The procedure: Since melatonin is protective in R6/2 mice and melatonin is deficient in humans with HD, it was evaluated whether exogenous melatonin reduces mtDNA release and consequent inflammation. Six-week old R6/2 mice were injected with melatonin daily for 3 weeks. Melatonin inhibited mtDNA release and ameliorated cGAS/STING/IRF3 upregulation in cortex and striatum in 9-week R6/2 mice (FIGS. 12D and E, and FIG. 13A).
R6/2 mice, which carry the promoter sequence and exon 1 of a mutant human HTT gene with approximately 150 CAG repeats, were obtained from JAX (Bar Harbor, ME). A colony was maintained by breeding R6/2 males with B6CBAF1 females (JAX). CAG repeat length was determined for every mouse in the colony and mice with 150 +/-10 CAG repeats were used. PCR genotyping was performed. Three, six and Nine week-old R6/2 mice were used in the experiments.
as §3
Total RNA was isolated using the RNeasy Plus kit (Qiagen) and quantified using a ND-1000 spectrophotometer. cDNA was prepared using 1000 ng total RNA by a reverse transcription PCR (RT-PCR) using a high capacity cDNA reverse transcription kit (Applied Biosystems). qPCR was performed on cDNA using SYBR Green chemistry. qPCR was performed on a Biorad CFX touch PCR using Applied Biosystems PowerUp SYBR green master mix. Fold changes in expression were calculated by the ΔΔCt method using mouse β-Actin as an endogenous control for mRNA expression. All fold changes were expressed normalized to the untreated control. […]

Assay [5] deals with AANAT-KO primary cerebrocortical neurons (PCNs). Nature of the assay: qPCR of cytosolic mtDNA in PCNs. Conditions: AANAT-KO PCN, DIV21, melatonin 5 µM. The class given is cell-based, mouse. The procedure:
as §1, with “AANAT-KO and littermate WT primary cerebro-cortical neuron (PCN) cultures were prepared from embryonic day (E) 15.5 embryos, as described elsewhere (see, e.g., Yano et al., Nature neuroscience 17:822 (2014)).” left out
(§4) For measurement of mtDNA in cytosol in cells, cell fractions were prepared using Cell Fractionation Kit (Abeam). […] The copy number of mtDNA encoding cytochrome c oxidase 1 (mt-CO1), mt-Dloop1 and mt-Dloop3 was measured by quantitative real-time PCR with same volume of DNA solution. […]
On the technique in general: Quantitative PCR measures a nucleic acid by following its amplification.

Assay [6] deals with mitochondria of AANAT-KO differentiated N2a cells. As to the kind of experiment: Mitochondrial in vitro protein import assay (pOTC/mOTC). The format is cell-based, mouse. Conditions: melatonin. The procedure: as §1, with “Differentiation of Q7 and Q111 cells was induced by exposing cells to 10 ng/mL α-FGF, 250 µM 3-isobutyl-1-methylxanthine (IBMX), 200 nM phorbol 12-myristate 13-acetate (TPA), 50 µM forskolin and 10 µM dopamine for 2 days. AANAT-KO and littermate WT primary cerebro-cortical neuron (PCN) cultures were prepared from embryonic day (E) 15.5 embryos, as described elsewhere (see, e.g., Yano et al., Nature neuroscience 17:822 (2014)).” left out
Ornithine transcarbamylase (OTC) precursor cDNA in pGEM-3Zf(+)-pOTC plasmid was transcribed and translated in vitro using the TNT Coupled Reticulocyte Lysate System (Promega) in the presence of [^35S] methionine (PerkinElmer). […] Mature OTC, which represents the cleaved protein after translocation into the mitochondrial matrix, was quantified by ImageJ (NIH). […]

The subject of assay [7] is AANAT-KO differentiated N2a cells. Nature of the assay: 8-OHDG immunofluorescence (mtDNA oxidative damage) in differentiated N2a cells. The format is cell-based, mouse. Conditions: melatonin 5 µM. The procedure: as §1, with “(2014)). […]” for “(2014)).”
Assay [8] has as its system AANAT-KO primary cerebrocortical neurons (PCNs). Nature of the assay: Immunoblot of cGAS, STING, IRF3, caspase-1 in PCNs. The class given is cell-based, mouse. Conditions: AANAT-KO PCN, DIV21, melatonin 5 µM. As for the experimental part:
(§5) N2a cells were obtained from ATCC and grown in DMEM/F12 medium with 10% FBS. AANAT-KO N2a cells were generated as described elsewhere (see, e.g., Suofu et al., PNAS 114:E7997-E8006 (2017)). N2a cells were differentiated by exposing them to 10 µM retinoic acid (RA) with 2% fetal bovine serum (FBS) for 8 days. Every alternate day, the culture medium of differentiating N2a cells was replaced with fresh medium containing 10 µM of RA. N2a cells were treated with 5 µM melatonin during differentiation to evaluate the effect of melatonin in WT and AANAT-KO N2a differentiated neurons. Fresh melatonin was added with RA every alternate day for 8 days. All experiments were performed in 8-day-differentiated neurons with or without melatonin. […]
as §3

Assay [9] relates to AANAT-KO differentiated N2a cells. Nature of the assay: Cytokine ELISA in culture medium of differentiated N2a cells. The settings on record: melatonin 5 µM. The format is cell-based, mouse. The procedure: as §1
The test system is the same in assay [10]. As to the kind of experiment: qPCR of cytosolic mtDNA in differentiated N2a cells. The class given is cell-based, mouse. The settings on record: melatonin 5 µM. As for the experimental part:
as §1, with “AANAT-KO and littermate WT primary cerebro-cortical neuron (PCN) cultures were prepared from embryonic day (E) 15.5 embryos, as described elsewhere (see, e.g., Yano et al., Nature neuroscience 17:822 (2014)).” left out
as §4

The subject of assay [11] is AANAT-KO primary cerebrocortical neurons (PCNs). Nature of the assay: MMP (TMRM) and mitochondrial ROS (Mitosox) in PCNs. The format is cell-based, mouse. Conditions: AANAT-KO PCN, DIV21, melatonin 5 µM in culture medium. As for the experimental part: as §5, with “melatonin. STHdh^Q7/Q7 (Q7) STHdh^Q111/Q111 (Q111) cells were grown in MEM culture medium with 10% FBS.” for “melatonin.”
as §2

Assay [12] relates to Q7 and Q111 differentiated neurons. As to the kind of experiment: Immunoblot of cGAS, IRF3, STING in differentiated Q7 and Q111 neurons. Conditions: differentiated Q111 neurons transfected with DNase 1, LDH control. The class given is cell-based, mice. The procedure:
as §5
as §3, with “Studio (Li-Cor). […]” for “Studio (Li-Cor).”

Assay [13] has the same test system. As to the kind of experiment: Cytokine ELISA and mRNA qPCR in differentiated Q7 and Q111 neurons. The settings on record: Q111 differentiated neurons transfected with DNase 1, LDH control. The class given is cell-based, mice. The procedure:
as §5, with “melatonin. STHdh^Q7/Q7 (Q7) STHdh^Q111/Q111 (Q111) cells were grown in MEM culture medium with 10% FBS.” for “melatonin.”
Total RNA was isolated using the RNeasy Plus kit (Qiagen) and quantified using a ND-1000 spectrophotometer. cDNA was prepared using 1000 ng total RNA by a reverse transcription PCR (RT-PCR) using a high capacity cDNA reverse transcription kit (Applied Biosystems). qPCR was performed on cDNA using SYBR Green chemistry. qPCR was performed on a Biorad CFX touch PCR using Applied Biosystems PowerUp SYBR green master mix. Fold changes in expression were calculated by the ΔΔCt method using mouse β-Actin as an endogenous control for mRNA expression. […]

The test system of another assay is Q111 cells. Nature of the assay: ROS (Mitosox) and MMP (TMRM) in differentiated Q7 and Q111 neurons. The settings on record: Q111 cells transfected with DNase 1, 2 µg/mL, LDH control. The class given is cell-based, mice. The procedure:
as §5, with “melatonin. STHdh^Q7/Q7 (Q7) STHdh^Q111/Q111 (Q111) cells were grown in MEM culture medium with 10% FBS.” for “melatonin.”
as §2

As for `COc1ccc2[nH]cc(CCNC(C)=O)c2c1` [melatonin, Melatonin], the proinflammatory cytokines secretion result in [1] was “inhibited”. In addition, in assay [2], the average neurite length entry is “rescued” and the average neurite number entry is listed as “rescued”. Besides, in [3], the “MMP (JC-1 fluorescence)” value is given as “mitigated” and the “ROS (Mitosox fluorescence)” value was “mitigated”. Also, in [4], the caspase-3 activation entry was “inhibited”; the “expression of PSD95 (post-synaptic marker)” value is recorded as “increased”; the “expression of synaptophysin (pre-synaptic marker)” value is on record as “increased”; the “inflammatory signaling pathways (Nf-kβ phosphorylation, caspase-1 cleavage, cGAS/STING/IRF3 levels)” value was “inhibited”. The “expression of pro-inflammatory cytokines in brain” value in the assay with R6/2 mice is listed as “reduced”. In addition, in the assay on R6/2 mice (cortex and striatum), the cGAS/STING/IRF3 upregulation entry was “ameliorated” and the “mtDNA release (cytosolic mtDNA)” value is “inhibited”. The “cytosolic mtDNA (mt-CO1, mt-Dloop1, mt-Dloop3)” value in [5] is on record as “inhibited”. For the same molecule, the mitochondrial protein import entry in assay [6] is “mitigated”. Moreover, in [7], the “mtDNA damage (8-OHDG)” value was “mitigated”. Also, in [8], the cGAS/STING/IRF3 protein levels entry was “inhibited” and the caspase-1 result is “inhibited”. Further, the pro-inflammatory cytokines secretion entry in [9] is recorded as “inhibited”. The “mtDNA release (cytosolic mtDNA)” value in assay [10] was “prevented”. In addition, in [11], the “MMP (TMRM fluorescence)” value was “restored” and the “mitochondrial ROS (Mitosox)” value is reported as “restored”.

B1: DNAse1: DNAse1 protein transfected to degrade cytosolic DNA (protein, UniProt P24855 23-282, looked up)
Deoxyribonuclease-1: LKIAAFNIQTFGETKMSNATLVSYIVQILSRYDIALVQEVRDSHLTAVGKLLDNLNQDAPDTYHYVVSEPLGRNSYKERYLFVYRPDQVSAVDSYYYDDGCEPCGNDTFNREPAIVRFFSRFTEVREFAIVPLHAAPGDAVAEIDALYDVYLDVQEKWGLEDVMLMGDFNAGCSYVRPSQWSSIRLWTSPTFQWLIPDSADTTATPTHCAYDRIVVAGMLLRGAVVPDSALPFNFQAAYGLSDQLAQAISDHYPVEVMLK
As to B1, in [12], the cGAS/STING/IRF3 levels result was “inhibited”. The proinflammatory cytokine secretion entry in assay [13] is reported as “inhibited”. Also, in the assay with Q111 cells, the “elevated ROS (Mitosox)” value was “did not alter” and the “reduced MMP (TMRM)” value is listed as “did not alter”.

Values taken from patent publication US20230210096A1, “NON-HUMAN ANIMAL MODELS FOR AGING AND/OR NEURODEGENERATION” (University of Pittsburgh - Of the Commonwealth System of …, priority 2020, published 2023).
